In US9346786B2, “Pyrrolidine compounds” (Hoffmann-La Roche Inc., priority 2009, dated 2016):

Target: recombinant human NK3 receptor (Homo sapiens (Human), UniProt P29371)
Assay: biochemical
Format: binding
Conditions: [3H]SR142801, membranes of HEK293 cells transiently expressing recombinant human NK3 receptor; read-out: Data Ki (hNK-3 receptor affinity)
Method: [^3H]SR142801 Competition Binding Assay
hNK3 receptor binding experiment were performed using [^3H]SR142801 (Catalog No. TRK1035, specific activity: 74.0 Ci/mmol, Amersham, GE Healthcare UK limited, Buckinghamshire, UK) and membrane isolated from HEK293 cells transiently expressing recombinant human NK3 receptor. After thawing, the membrane homogenates were centrifuged at 48,000×g for […] at 4° C., the pellets were resuspended in the 50 mM Tris-HCl, 4 mM MnCl2, 1 μM phosphoramidon, 0.1% BSA binding buffer at pH 7.4 to a final assay concentration of 5 μg protein/well. For inhibition experiments, membranes were incubated with [^3H]SR142801 at a concentration equal to KD value of radioligand and 10 concentrations of the inhibitory compound (0.0003-10 μM) (in a total reaction volume of 500 μl) for 75 min at room temperature (RT). At the end of the incubation, membranes were filtered onto unitfilter (96-well white microplate with bonded GF/C filter preincubated 1 h in 0.3% PEI+0.3% BSA, Packard BioScience, Meriden, Conn.) with a Filtermate 196 harvester (Packard BioScience) and washed 4 times with ice-cold 50 mM Tris-HCl, pH 7.4 buffer. Nonspecific binding was measured in the presence of 10 μM SB222200 for both radioligands. The radioactivity on the filter was counted (5 min) on a Packard Top-count microplate scintillation counter with quenching correction after addition of 45 μl of microscint 40 (Canberra Packard S.A., Zürich, Switzerland) and shaking for 1 h. Inhibition curves were fitted according to the Hill equation: y=100/(1+(x/IC50)^nH), where nH=slope factor using Excel-fit 4 software (Microsoft). IC50 values were derived from the inhibition curve and the affinity constant (Ki) values were calculated using the Cheng-Prussoff equation Ki=IC50/(1+[L]/KD) where [L] is the concentration of radioligand and KD is its dissociation constant at the receptor, derived from the saturation isotherm. All experiments were performed in duplicate and the mean±standard error (SEM) of the individual Ki values was calculated.

recombinant human NK3 receptor, sequence (P29371 whole entry): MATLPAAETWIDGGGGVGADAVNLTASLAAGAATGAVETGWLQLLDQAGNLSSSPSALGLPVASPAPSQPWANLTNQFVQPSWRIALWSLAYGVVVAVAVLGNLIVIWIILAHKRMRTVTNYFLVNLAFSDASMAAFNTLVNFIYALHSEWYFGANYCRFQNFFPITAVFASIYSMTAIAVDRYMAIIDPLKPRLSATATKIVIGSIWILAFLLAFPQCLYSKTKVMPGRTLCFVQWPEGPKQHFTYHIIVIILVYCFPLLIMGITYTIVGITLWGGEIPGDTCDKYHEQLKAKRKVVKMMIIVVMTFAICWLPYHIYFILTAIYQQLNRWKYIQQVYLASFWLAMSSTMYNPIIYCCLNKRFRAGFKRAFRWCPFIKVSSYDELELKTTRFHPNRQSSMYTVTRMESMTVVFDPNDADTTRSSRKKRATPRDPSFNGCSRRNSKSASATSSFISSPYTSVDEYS

Row | Compound | Ki [nM]
1 | CCN(C(=O)Oc1ccc(F)cc1)[C@@H]1CN(C(=O)C2CCN(c3ccc(Cl)cn3)CC2)C[C@H]1c1ccc(Cl)c(Cl)c1 [Example 113, [(3S,4R)-1-(5′-Chloro-3,4,5,6-tetrahydro-2H-[1,2′]bipyridinyl-4-carbonyl)-4-(3,4-dichloro-phenyl)-pyrrolidin-3-yl]-ethyl-carbamic acid 4-fluoro-phenyl ester] | 0.5
2 | CCN(C(=O)Oc1ccc(F)cc1)[C@@H]1CN(C(=O)C2CCN(C(=O)C3(C)COC3)CC2)C[C@H]1c1ccc(Cl)cc1 [Example 88, {(3S,4R)-4-(4-Chloro-phenyl)-1-[1-(3-methyl-oxetane-3-carbonyl)-piperidine-4-carbonyl]-pyrrolidin-3-yl}-ethyl-carbamic acid 4-fluoro-phenyl ester] | 5.6
3 | CCN(C(=O)Oc1ccc(F)cc1)[C@@H]1CN(C(=O)C2CCN(C(=O)C3(C)CC3)CC2)C[C@H]1c1ccc(Cl)c(F)c1 [Example 44, {(3S,4R)-4-(4-Chloro-3-fluoro-phenyl)-1-[1-(1-methyl-cyclopropanecarbonyl)-piperidine-4-carbonyl]-pyrrolidin-3-yl}-ethyl-carbamic acid 4-fluoro-phenyl ester] | 2
4 | CCN(C(=O)Oc1ccc(F)cc1)[C@@H]1CN(C(=O)C2CCN(C(=O)C3CC(OC)C3)CC2)C[C@H]1c1ccc(Cl)cc1 (stereo partly drawn) [Example 91, {(3S,4R)-4-(4-Chloro-phenyl)-1-[1-(3-methoxy-cyclobutanecarbonyl)-piperidine-4-carbonyl]-pyrrolidin-3-yl}-ethyl-carbamic acid 4-fluoro-phenyl ester] | 6.5
5 | CCN(C(=O)Oc1ccc(F)cc1)[C@@H]1CN(C(=O)C2CCN(C(=O)c3ccc(C(F)(F)F)cn3)CC2)C[C@H]1c1ccc(Cl)c(F)c1 [Example 74, {(3S,4R)-4-(4-Chloro-3-fluoro-phenyl)-1-[1-(5-trifluoromethyl-pyridine-2-carbonyl)-piperidine-4-carbonyl]-pyrrolidin-3-yl}-ethyl-carbamic acid 4-fluoro-phenyl ester] | 12
6 | CCN(C(=O)Oc1ccc(F)cc1)[C@H]1CN(C(=O)C2CCN(c3ccc(C#N)nn3)CC2)C[C@@H]1c1ccc(Cl)cc1 [Example 12, {(3R,4S)-4-(4-Chloro-phenyl)-1-[1-(6-cyano-pyridazin-3-yl)-piperidine-4-carbonyl]-pyrrolidin-3-yl}-ethyl-carbamic acid 4-fluoro-phenyl ester] | 23
7 | CCN(C(=O)Oc1ccc(F)cc1)[C@@H]1CN(C(=O)C2CCN(C(=O)C3CC(F)(F)C3)CC2)C[C@H]1c1ccc(Cl)c(F)c1 [Example 66, {(3S,4R)-4-(4-Chloro-3-fluoro-phenyl)-1-[1-(3,3-difluoro-cyclobutanecarbonyl)-piperidine-4-carbonyl]-pyrrolidin-3-yl}-ethyl-carbamic acid 4-fluoro-phenyl ester] | 1
8 | CCN(C(=O)Oc1ccc(F)cc1)[C@@H]1CN(C(=O)C2CCN(c3ccc(S(C)(=O)=O)cn3)CC2)C[C@H]1c1ccc(Cl)c(F)c1 [Example 63, [(3S,4R)-4-(4-Chloro-3-fluoro-phenyl)-1-(5′-methanesulfonyl-3,4,5,6-tetrahydro-2H-[1,2′]bipyridinyl-4-carbonyl)-pyrrolidin-3-yl]-ethyl-carbamic acid 4-fluoro-phenyl ester] | 0.7
9 | CCN(C(=O)Oc1ccc(F)cc1)[C@@H]1CN(C(=O)C2CCN(c3ncc(C#N)cn3)CC2)C[C@H]1c1ccc(Cl)cc1 [Example 13, {(3S,4R)-4-(4-Chloro-phenyl)-1-[1-(5-cyano-pyrimidin-2-yl)-piperidine-4-carbonyl]-pyrrolidin-3-yl}-ethyl-carbamic acid 4-fluoro-phenyl ester] | 8
10 | CCN(C(=O)Oc1ccccc1F)[C@@H]1CN(C(=O)C2CCN(C(=O)C3(C)COC3)CC2)C[C@H]1c1ccc(Cl)cc1 [Example 84, {(3S,4R)-4-(4-Chloro-phenyl)-1-[1-(3-methyl-oxetane-3-carbonyl)-piperidine-4-carbonyl]-pyrrolidin-3-yl}-ethyl-carbamic acid 2-fluoro-phenyl ester] | 29.8
11 | CCN(C(=O)Oc1ccc(F)cc1)[C@@H]1CN(C(=O)C2CCN(c3ccc(C(N)=O)cn3)CC2)C[C@H]1c1ccc(Cl)c(Cl)c1 [Example 115, [(3S,4R)-1-(5′-Carbamoyl-3,4,5,6-tetrahydro-2H-[1,2′]bipyridinyl-4-carbonyl)-4-(3,4-dichloro-phenyl)-pyrrolidin-3-yl]-ethyl-carbamic acid 4-fluoro-phenyl ester] | 0.9
12 | CCN(C(=O)Oc1ccc(F)cc1)[C@@H]1CN(C(=O)C2CCN(C(=O)C3CC3(F)F)CC2)C[C@H]1c1ccc(Cl)c(F)c1 (stereo partly drawn) [Example 70, {(3S,4R)-4-(4-Chloro-3-fluoro-phenyl)-1-[1-(2,2-difluoro-cyclopropanecarbonyl)-piperidine-4-carbonyl]-pyrrolidin-3-yl}-ethyl-carbamic acid 4-fluoro-phenyl ester] | 4
13 | CCN(C(=O)Oc1ccc(F)cc1)[C@@H]1CN(C(=O)C2CCN(c3ccc(C#N)nc3)CC2)C[C@H]1c1ccc(Cl)c(F)c1 [Example 43, [(3S,4R)-4-(4-Chloro-3-fluoro-phenyl)-1-(6′-cyano-3,4,5,6-tetrahydro-2H-[1,3′]bipyridinyl-4-carbonyl)-pyrrolidin-3-yl]-ethyl-carbamic acid 4-fluoro-phenyl ester] | 0.3
14 | CCN(C(=O)Oc1ccc(F)cc1)[C@@H]1CN(C(=O)C2CCN(c3ccc(C#N)cn3)CC2)C[C@H]1c1ccc(Cl)c(F)c1 [Example 40, [(3S,4R)-4-(4-Chloro-3-fluoro-phenyl)-1-(5′-cyano-3,4,5,6-tetrahydro-2H-[1,2′]bipyridinyl-4-carbonyl)-pyrrolidin-3-yl]-ethyl-carbamic acid 4-fluoro-phenyl ester] | 0.7

Same assay, conditions: read-out: Data Ki (hNK-3 receptor affinity)

Row | Compound | Ki [nM]
15 | CCN(C(=O)Oc1ccc(F)cc1)[C@@H]1CN(C(=O)C2CCN(c3cc(C#N)ccn3)CC2)C[C@H]1c1ccc(Cl)c(F)c1 [Example 45, [(3S,4R)-4-(4-Chloro-3-fluoro-phenyl)-1-(4′-cyano-3,4,5,6-tetrahydro-2H-[1,2′]bipyridinyl-4-carbonyl)-pyrrolidin-3-yl]-ethyl-carbamic acid 4-fluoro-phenyl ester] | 3
16 | CCN(C(=O)Oc1ccc(F)cc1)[C@@H]1CN(C(=O)C2CCN(c3cnc(C#N)cn3)CC2)C[C@H]1c1ccc(Cl)cc1 [Example 17, {(3S,4R)-4-(4-Chloro-phenyl)-1-[1-(5-cyano-pyrazin-2-yl)-piperidine-4-carbonyl]-pyrrolidin-3-yl}-ethyl-carbamic acid 4-fluoro-phenyl ester] | 2
17 | O=C(C1CCN(c2ccc(C(F)(F)F)cn2)CC1)N1C[C@@H](N(C(=O)Oc2ccc(F)cc2)C2CC2)[C@H](c2ccc(Cl)cc2)C1 [Example 31, [(3S,4R)-4-(4-Chloro-phenyl)-1-(5′-trifluoromethyl-3,4,5,6-tetrahydro-2H-[1,2′]bipyridinyl-4-carbonyl)-pyrrolidin-3-yl]-cyclopropyl-carbamic acid 4-fluoro-phenyl ester] | 57
18 | CCN(C(=O)Oc1ccc(F)cc1)[C@@H]1CN(C(=O)C2CCN(C(=O)C3(C#N)CC3)CC2)C[C@H]1c1ccc(Cl)c(F)c1 [Example 72, {(3S,4R)-4-(4-Chloro-3-fluoro-phenyl)-1-[1-(1-cyano-cyclopropanecarbonyl)-piperidine-4-carbonyl]-pyrrolidin-3-yl}-ethyl-carbamic acid 4-fluoro-phenyl ester] | 2
19 | CCN(C(=O)Oc1ccc(F)cc1)[C@@H]1CN(C(=O)C2CCN(c3ccc(C(C)=O)cn3)CC2)C[C@H]1c1ccc(F)cc1 [Example 38, [(3S,4R)-1-(5′-Acetyl-3,4,5,6-tetrahydro-2H-[1,2′]bipyridinyl-4-carbonyl)-4-(4-fluoro-phenyl)-pyrrolidin-3-yl]-ethyl-carbamic acid 4-fluoro-phenyl ester] | 7
20 | CCN(C(=O)Oc1ccc(F)cc1)[C@@H]1CN(C(=O)C2CCN(c3cc(C#N)ccn3)CC2)C[C@H]1c1ccc(Cl)cc1 [Example 15, [(3S,4R)-4-(4-Chloro-phenyl)-1-(4′-cyano-3,4,5,6-tetrahydro-2H-[1,2′]bipyridinyl-4-carbonyl)-pyrrolidin-3-yl]-ethyl-carbamic acid 4-fluoro-phenyl ester] | 8
21 | CCN(C(=O)Oc1ccc(F)cc1)[C@@H]1CN(C(=O)C2CCN(c3ccc(C(F)(F)F)cn3)CC2)C[C@H]1c1ccc(F)c(Cl)c1 [Example 119, [(3S,4R)-4-(3-Chloro-4-fluoro-phenyl)-1-(5′-trifluoromethyl-3,4,5,6-tetrahydro-2H-[1,2′]bipyridinyl-4-carbonyl)-pyrrolidin-3-yl]-ethyl-carbamic acid 4-fluoro-phenyl ester] | 3.7
